Measured values as given in US6846818B2, “Selective inhibitors of cyclooxygenase-2” (Pfizer Inc., priority 2002, dated 2005).

Legend:
[1] = target: T1, COX-2 (Homo sapiens, UniProt P35354); test: Cell-based COX-2 inhibition (canine, feline or human assays); conditions: from IC50 COX-1 vs COX-2
T1 sequence (P35354 18-604): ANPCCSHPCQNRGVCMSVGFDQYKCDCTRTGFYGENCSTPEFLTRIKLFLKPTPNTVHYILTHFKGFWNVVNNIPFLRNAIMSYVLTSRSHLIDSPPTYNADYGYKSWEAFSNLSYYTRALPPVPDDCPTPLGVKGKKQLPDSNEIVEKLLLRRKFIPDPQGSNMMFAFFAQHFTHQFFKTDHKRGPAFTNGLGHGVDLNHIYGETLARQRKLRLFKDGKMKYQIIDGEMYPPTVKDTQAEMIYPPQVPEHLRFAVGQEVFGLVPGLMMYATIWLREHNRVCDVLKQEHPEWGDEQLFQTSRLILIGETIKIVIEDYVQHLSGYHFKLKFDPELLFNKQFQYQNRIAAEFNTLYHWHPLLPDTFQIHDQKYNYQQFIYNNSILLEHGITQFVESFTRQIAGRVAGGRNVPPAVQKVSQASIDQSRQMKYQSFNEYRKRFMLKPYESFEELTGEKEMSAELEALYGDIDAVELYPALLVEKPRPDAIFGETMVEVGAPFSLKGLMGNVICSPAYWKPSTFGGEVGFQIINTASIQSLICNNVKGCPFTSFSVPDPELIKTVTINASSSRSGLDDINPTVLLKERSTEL
Description: The human cell based COX-2 assay can be carried out as previously described (Moore et al., Inflam. Res., 45, 54, 1996). Confluent human umbilical vein endothelial cells (HUVECs, Morinaga) in a 96-well flat bottom plate can be washed with 80 ml of RPMI1640 containing 2% FBS and incubated with hIL-1β (final concentration 300 U/ml, R & D Systems) at 37° C. for 24 hours. After washing, the activated HUVECs can be incubateed with test compound (final concentration; 0.1 nM-1 μM) dissolved in DMSO (final concentration; less than 0.01%) at 37° C. for 20 minutes and stimulated with A23187 (final concentration […]) in Hanks buffer containing 0.2% BSA, 20 mM Hepes at 37° C. for 15 minutes. 6-Keto-PGF1α, stable metabolite of PGI2, in the supernatant can be quantitated by using a radioimmunoassay method (antibody; Preseptive Diagnostics, SPA; Amersham).
A canine histocytoma (macrophage-like) cell line from the American Type Culture Collection designated as DH82, can be used in setting up the protocol for evaluating the COX-2 inhibition activity of various test drug compounds. […] The EIA can be performed for prostaglandin E2 (PGE2) and the pg/mL concentration of PGE2 can be calculated from the standard line included on each plate. […] The results are averaged and a single COX-1:COX-2 ratio is calculated. […]

[2] = target: T2, COX-1 (Homo sapiens, UniProt P23219); test: Cell-based COX-1 inhibition; conditions: assay/species not specified
T2 construct: endogenous in cells; host or cells: one of: human washed platelets, canine washed platelets, or feline/canine/human whole blood
T2 sequence (P23219 24-599): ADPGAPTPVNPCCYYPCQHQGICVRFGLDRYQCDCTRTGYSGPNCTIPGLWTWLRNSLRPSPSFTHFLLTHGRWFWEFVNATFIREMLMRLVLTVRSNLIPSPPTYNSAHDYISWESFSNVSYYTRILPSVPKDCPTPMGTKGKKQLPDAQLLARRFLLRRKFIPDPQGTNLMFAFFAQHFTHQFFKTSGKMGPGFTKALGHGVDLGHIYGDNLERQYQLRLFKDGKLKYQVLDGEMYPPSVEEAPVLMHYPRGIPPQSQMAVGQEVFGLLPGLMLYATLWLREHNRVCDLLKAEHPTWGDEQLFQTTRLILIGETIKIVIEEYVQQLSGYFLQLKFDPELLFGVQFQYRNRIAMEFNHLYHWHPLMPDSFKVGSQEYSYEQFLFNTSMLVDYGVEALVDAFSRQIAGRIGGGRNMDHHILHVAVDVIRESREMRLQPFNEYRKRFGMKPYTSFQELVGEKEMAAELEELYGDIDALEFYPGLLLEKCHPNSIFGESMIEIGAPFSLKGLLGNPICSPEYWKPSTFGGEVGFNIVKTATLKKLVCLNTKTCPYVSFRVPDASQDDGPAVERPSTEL
Description: Human peripheral blood obtained from healthy volunteers can be diluted to 1/10 volume with 3.8% sodium citrate solution. The platelet-rich plasma immediately obtained can be washed with 0.14 M sodium chloride containing 12 mM Tris-HCl (pH 7.4) and 1.2 mM EDTA. Platelets can then be washed with platelet buffer (Hanks buffer (Ca free) containing 0.2% BSA and 20 mM Hepes). Finally, the human washed platelets (HWP) can be suspended in platelet buffer at the concentration of 2.85×10^8 cells/ml and stored at room temperature until use. The HWP suspension (70 μl aliquots, final 2.0×10^7 cells/ml) can be placed in a 96-well U bottom plate and 10 μl aliquots of 12.6 mM calcium chloride added. […] The reaction can be stopped by addition of EDTA (final 7.7 mM) and TxB2 in the supernatant quantitated by using a radioimmunoassay kit (Amersham) according to the manufacturer's procedure.
Test drug compounds can be solubilized and diluted the day before the assay can be to be conducted with 0.1 mL of DMSO/9.9 mL of Hank's balanced salts solution (HBSS) and stored overnight at 4° C. […] The pg/mL of TXB2 can be calculated from the standard line included on each plate, from which it can be possible to calculate the percent inhibition of COX-1 and the IC50 values for the test drug compounds. […]
COX-2 selectivity can be determined by ratio in terms of IC50 value of COX-1 inhibition to COX-2 inhibition. […]

Compound: Cc1cc(C)cc(NC(=O)N2C(=O)C(C(=O)c3cnccn3)c3cc(C)c(F)cc32)c1 (centres unmarked) [6-Fluoro-5-methyl-2-oxo-3-(pyrazine-2-carbonyl)-2,3-dihydro-indole-1-carboxylic acid (3,5-dimethyl-phenyl)-amide]
- selectivity for COX-2 (COX-1/COX-2 IC50) [1]: no selectivity for COX-2
- IC50 [2]: > 150 µM
